Source: ChEMBL document CHEMBL5329195, “Identification of novel glucocerebrosidase chaperones by unexpected skeletal rearrangement reaction” (Bioorg Med Chem Lett, 2023)
Calls of active or inactive are those of the source. The rule behind the calls is not given here.

Assays:
[1] = target: T1, Lysosomal acid glucosylceramidase (Homo sapiens, UniProt P04062, N409S); experiment: Inhibition of GCase N370S GBA mutant in patient derived fibroblast cells using 4-methylumbelliferyl-beta-D-glucopyranoside as substrate incubated for 5 days by fluorescence based analysis; assay type: cell-based
[2] = tested on: T2, Lysosomal acid glucosylceramidase (Homo sapiens), P04062 [N409S]; experiment: Chaperone activity at GCase N370S GBA mutant in patient derived fibroblast cells using 4-methylumbelliferyl-beta-D-glucopyranoside as substrate incubated for 5 days by fluorescence based analysis relative to control; assay type: cell-based; conditions: time 5.0 day
T2 sequence (whole entry): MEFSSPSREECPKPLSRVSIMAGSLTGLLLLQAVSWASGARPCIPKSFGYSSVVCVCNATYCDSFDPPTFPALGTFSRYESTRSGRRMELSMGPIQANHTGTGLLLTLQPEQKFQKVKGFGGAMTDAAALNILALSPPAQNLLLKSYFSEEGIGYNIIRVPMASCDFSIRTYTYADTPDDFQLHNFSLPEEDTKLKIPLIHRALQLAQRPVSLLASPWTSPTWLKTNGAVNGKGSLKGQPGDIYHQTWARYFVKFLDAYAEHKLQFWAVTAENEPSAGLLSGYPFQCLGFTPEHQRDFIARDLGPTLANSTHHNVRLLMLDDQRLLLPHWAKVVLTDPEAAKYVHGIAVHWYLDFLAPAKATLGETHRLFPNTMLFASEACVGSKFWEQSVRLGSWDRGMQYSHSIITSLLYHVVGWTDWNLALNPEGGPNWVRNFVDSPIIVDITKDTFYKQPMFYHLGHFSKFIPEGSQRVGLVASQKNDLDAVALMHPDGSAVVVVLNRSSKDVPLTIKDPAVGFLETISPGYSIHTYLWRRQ

[3] = tested on: T2, Lysosomal acid glucosylceramidase (Homo sapiens), P04062 [N409S]; experiment: Inhibition of GCase N370S GBA mutant in patient derived fibroblast cells using 4-methylumbelliferyl-beta-D-glucopyranoside as substrate incubated for 5 days by fluorescence based analysis relative to control; assay type: cell-based; conditions: time 5.0 day
[4] = target: T1, Lysosomal acid glucosylceramidase; experiment: Chaperone activity at GCase N370S GBA mutant in patient derived fibroblast cells using 4-methylumbelliferyl-beta-D-glucopyranoside as substrate incubated for 5 days by fluorescence based analysis; assay type: cell-based
[5] = Solubility of the compound at pH 7.4; assay type: physicochemical; conditions: buffer
[6] = Stability of the compound in human liver microsomes assessed as intrinsic clearance; assay type: ADME, Microsome; conditions: read-out: CLH
[7] = Stability of the compound in mouse liver microsomes assessed as intrinsic clearance; assay type: ADME, Microsome; conditions: read-out: CLH
[8] = Solubility of the compound at pH 1.2; assay type: physicochemical; conditions: buffer
[9] = target: Voltage-gated inwardly rectifying potassium channel KCNH2 (Homo sapiens, UniProt Q12809); experiment: Inhibition of human ERG; assay type: toxicity
Sequence of Voltage-gated inwardly rectifying potassium channel KCNH2 (Q12809 whole entry): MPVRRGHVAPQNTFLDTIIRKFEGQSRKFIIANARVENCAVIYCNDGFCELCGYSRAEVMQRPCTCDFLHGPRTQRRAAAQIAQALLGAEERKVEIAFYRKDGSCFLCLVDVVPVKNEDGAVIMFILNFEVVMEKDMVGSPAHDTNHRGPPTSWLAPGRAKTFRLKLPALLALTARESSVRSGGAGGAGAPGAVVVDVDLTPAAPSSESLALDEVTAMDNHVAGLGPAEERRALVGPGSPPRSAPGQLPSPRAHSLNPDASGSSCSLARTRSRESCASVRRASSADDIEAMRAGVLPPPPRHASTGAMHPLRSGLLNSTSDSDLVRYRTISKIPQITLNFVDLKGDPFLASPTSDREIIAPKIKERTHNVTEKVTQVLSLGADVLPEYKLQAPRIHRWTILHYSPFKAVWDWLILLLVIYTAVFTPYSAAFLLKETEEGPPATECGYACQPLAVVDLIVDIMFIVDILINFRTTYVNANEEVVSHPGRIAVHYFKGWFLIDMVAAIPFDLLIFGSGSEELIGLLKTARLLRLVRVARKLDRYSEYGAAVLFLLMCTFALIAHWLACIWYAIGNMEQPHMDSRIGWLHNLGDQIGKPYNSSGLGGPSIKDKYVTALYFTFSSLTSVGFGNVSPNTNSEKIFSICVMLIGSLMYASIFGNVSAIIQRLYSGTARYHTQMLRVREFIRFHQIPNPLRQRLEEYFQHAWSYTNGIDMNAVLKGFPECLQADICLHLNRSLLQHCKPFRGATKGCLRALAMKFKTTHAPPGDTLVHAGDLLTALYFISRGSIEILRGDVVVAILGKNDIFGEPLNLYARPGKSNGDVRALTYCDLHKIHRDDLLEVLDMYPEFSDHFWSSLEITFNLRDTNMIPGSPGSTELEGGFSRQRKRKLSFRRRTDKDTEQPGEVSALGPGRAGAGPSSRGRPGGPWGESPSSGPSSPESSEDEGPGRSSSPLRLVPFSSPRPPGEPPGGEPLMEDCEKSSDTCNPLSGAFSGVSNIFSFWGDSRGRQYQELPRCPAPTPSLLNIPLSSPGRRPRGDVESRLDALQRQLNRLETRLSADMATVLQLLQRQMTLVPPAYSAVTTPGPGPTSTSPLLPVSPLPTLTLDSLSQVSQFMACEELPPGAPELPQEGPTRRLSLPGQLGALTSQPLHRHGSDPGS

## Cc1n[nH]c2c1[C@H](O)[C@@H](n1nnc3ccccc31)[C@H](c1ccccc1Cl)N2
[1]; fibroblast
  IC50: Not Active
[2]
  Emax: inactive
[3]
  Emax: inactive
[4]; fibroblast
  EC50: Not Active

## Cc1n[nH]c2c1[C@@H](O)[C@H](n1nnc3ccccc31)[C@@H](c1ccccc1Cl)N2 [listing 1 of 2 here]
[1]; read-out: IC50
  IC50: 110 nM
[5]
  solubility: > 100 µM
[6]
  microsomal CLint: 9.61 µL/min/mg
[7]
  microsomal CLint: 15.7 µL/min/mg
[8]
  solubility: > 100 µM
[9]
  IC50: > 25000 nM
[4]; read-out: EC50
  EC50: 76 nM

## Cc1n[nH]c2c1[C@@H](O)[C@H](n1nnc3ccccc31)[C@@H](c1ccccc1)N2 [listing 1 of 2 here]
[1]; read-out: IC50
  IC50: 3200 nM
[5]
  solubility: > 100 µM
[6]
  microsomal CLint: 5.01 µL/min/mg
[7]
  microsomal CLint: 9.88 µL/min/mg
[8]
  solubility: > 100 µM
[4]; read-out: EC50
  EC50: 1100 nM

## Cc1n[nH]c2c1[C@H](O)[C@@H](n1nnc3ccccc31)[C@H](c1ccccc1)N2
[1]; fibroblast
  IC50: Not Active
[2]
  Emax: inactive
[3]
  Emax: inactive
[4]; fibroblast
  EC50: Not Active

## Cc1n[nH]c2c1[C@H](O)[C@@H](n1nnc3ccccc31)[C@H](c1ccccc1Br)N2
[2]
  Emax: inactive
[4]; fibroblast
  EC50: Not Active

## Cc1n[nH]c2c1[C@@H](O)[C@H](n1nnc3ccccc31)[C@@H](c1ccccc1)N2 [listing 2 of 2 here]
[2]
  Emax: 137%
[3]
  Emax: 95%

## Cc1n[nH]c2c1[C@@H](O)[C@H](n1nnc3ccccc31)[C@@H](c1ccccc1Br)N2
[2]
  Emax: 170%
[3]
  Emax: 101%

## Cc1n[nH]c2c1[C@@H](O)[C@H](n1nnc3ccccc31)[C@@H](c1ccccc1Cl)N2 [listing 2 of 2 here]
[2]
  Emax: 163%
[3]
  Emax: 85%

## OC[C@H]1CNC[C@@H](O)[C@@H]1O
[2]
  Emax: 103%
[3]
  Emax: 103%

## O[C@@H]1c2c(-c3ccccc3)n[nH]c2N[C@H](c2ccccc2Cl)[C@H]1n1nnc2ccccc21 (racemic)
[2]
  Emax: inactive
[4]; fibroblast
  EC50: Not Active

## Cc1n[nH]c2c1[C@@H](O)[C@H](n1nnc3ccccc31)[C@@H](c1ccccc1C(F)(F)F)N2 (racemic)
[1]; read-out: IC50
  IC50: 1100 nM
[2]
  Emax: 160%
[3]
  Emax: 103%
[4]; read-out: EC50
  EC50: 470 nM

## Cc1cccc([C@H]2Nc3[nH]nc(C)c3[C@@H](O)[C@@H]2n2nnc3ccccc32)c1 (racemic)
[2]
  Emax: 158%
[4]; read-out: EC50
  EC50: 1100 nM

## Cc1n[nH]c2c1[C@@H](O)[C@H](n1nnc3ccccc31)[C@@H](c1ccccc1Br)N2 (racemic) [listing 1 of 2 here]
[4]; read-out: EC50
  EC50: 200 nM

## O[C@@H]1c2c(C3CC3)n[nH]c2N[C@H](c2ccccc2Cl)[C@H]1n1nnc2ccccc21 (racemic)
[1]; read-out: IC50
  IC50: 74 nM
[2]
  Emax: 172%
[3]
  Emax: 95%
[4]; read-out: EC50
  EC50: 83 nM

## Cc1ccc([C@H]2Nc3[nH]nc(C)c3[C@@H](O)[C@@H]2n2nnc3ccccc32)cc1 (racemic)
[2]
  Emax: 157%
[4]; read-out: EC50
  EC50: 1100 nM

## Cc1n[nH]c2c1[C@@H](O)[C@H](n1nnc3ccccc31)[C@@H](c1cccc(Cl)c1Cl)N2 (racemic)
[2]
  Emax: 140%
[4]; read-out: EC50
  EC50: 140 nM

## O[C@@H]1c2cn[nH]c2N[C@H](c2ccccc2)[C@H]1n1nnc2ccccc21 (racemic)
[2]
  Emax: > 40%
[4]; read-out: EC50
  EC50: > 16000 nM

## O[C@@H]1c2ccccc2N[C@H](c2ccccc2)[C@H]1n1nnc2ccccc21 (racemic)
[2]
  Emax: inactive
[4]; fibroblast
  EC50: Not Active

## O[C@@H]1c2cnccc2N[C@H](c2ccccc2Cl)[C@H]1n1nnc2ccccc21 (racemic)
[2]
  Emax: > 239%
[4]; read-out: EC50
  EC50: > 16000 nM

## Cc1n[nH]c2c1[C@@H](O)[C@H](n1nnc3ccccc31)[C@@H](c1ccccc1Cl)N2 (racemic) [listing 1 of 2 here]
[4]; read-out: EC50
  EC50: 140 nM

## O[C@@H]1c2c(C3CCCC3)n[nH]c2N[C@H](c2ccccc2)[C@H]1n1nnc2ccccc21 (racemic)
[2]
  Emax: inactive
[4]; fibroblast
  EC50: Not Active

## COCc1n[nH]c2c1[C@@H](O)[C@H](n1nnc3ccccc31)[C@@H](c1ccccc1)N2 (racemic)
[2]
  Emax: inactive
[4]; fibroblast
  EC50: Not Active

## Cc1n[nH]c2c1[C@@H](O)[C@H](n1nnc3ccccc31)[C@@H](C1CCCCCC1)N2 (racemic)
[2]
  Emax: 170%
[4]; read-out: EC50
  EC50: 230 nM

## Cc1n[nH]c2c1[C@@H](O)[C@H](n1nnc3ccccc31)[C@@H](c1ccccc1)N2 (racemic) [listing 1 of 2 here]
[4]; read-out: EC50
  EC50: 1400 nM

## Cc1n[nH]c2c1[C@@H](O)[C@H](n1nnc3ccccc31)[C@@H](C1CCCCC1)N2 (racemic)
[1]; read-out: IC50
  IC50: 650 nM
[2]
  Emax: 180%
[3]
  Emax: 102%
[4]; read-out: EC50
  EC50: 370 nM

## COc1ccccc1[C@H]1Nc2[nH]nc(C)c2[C@@H](O)[C@@H]1n1nnc2ccccc21 (racemic)
[2]
  Emax: 145%
[4]; read-out: EC50
  EC50: 3300 nM

## Cc1cccc([C@H]2Nc3[nH]nc(C)c3[C@@H](O)[C@@H]2n2nnc3ccccc32)c1Cl (racemic)
[2]
  Emax: 147%
[4]; read-out: EC50
  EC50: 150 nM

## Cc1n[nH]c2c1[C@@H](O)[C@H](n1nnc3ccccc31)[C@@H](C1CCOCC1)N2 (racemic)
[2]
  Emax: > 65%
[4]; read-out: EC50
  EC50: > 16000 nM

## Cc1n[nH]c2c1[C@@H](O)[C@H](n1nnc3ccccc31)[C@@H](c1ccc(Cl)cc1Cl)N2 (racemic)
[2]
  Emax: 150%
[4]; read-out: EC50
  EC50: 740 nM

## Cc1n[nH]c2c1[C@@H](O)[C@H](n1nnc3ccccc31)[C@@H](c1cccc(F)c1)N2 (racemic)
[2]
  Emax: 137%
[4]; read-out: EC50
  EC50: 1200 nM

## Cc1ccccc1[C@H]1Nc2[nH]nc(C)c2[C@@H](O)[C@@H]1n1nnc2ccccc21 (racemic)
[1]; read-out: IC50
  IC50: 4600 nM
[2]
  Emax: 158%
[3]
  Emax: 97%
[4]; read-out: EC50
  EC50: 1900 nM

## Cc1n[nH]c2c1[C@@H](O)[C@H](n1nnc3ccccc31)[C@@H](c1ccc(F)cc1)N2 (racemic)
[2]
  Emax: 61%
[4]; read-out: EC50
  EC50: 2200 nM

## CC(C)(C)c1n[nH]c2c1[C@@H](O)[C@H](n1nnc3ccccc31)[C@@H](c1ccccc1Cl)N2 (racemic)
[2]
  Emax: 132%
[4]; read-out: EC50
  EC50: 7400 nM

## Cc1n[nH]c2c1[C@@H](O)[C@H](n1nnc3ccccc31)[C@@H](c1cc(Cl)ccc1Cl)N2 (racemic)
[2]
  Emax: 145%
[4]; read-out: EC50
  EC50: 720 nM

## Cc1n[nH]c2c1[C@@H](O)[C@H](n1nnc3ccccc31)[C@@H](c1cccc(F)c1Cl)N2 (racemic)
[2]
  Emax: 148%
[4]; read-out: EC50
  EC50: 110 nM

## Cc1n[nH]c2c1[C@@H](O)[C@H](n1nnc3ccccc31)[C@@H](C1CC1)N2 (racemic)
[2]
  Emax: inactive
[4]; fibroblast
  EC50: Not Active

## Cc1n[nH]c2c1[C@@H](O)[C@H](n1nnc3ccccc31)[C@@H](C1CCCC1)N2 (racemic)
[2]
  Emax: 150%
[4]; read-out: EC50
  EC50: 1900 nM

## CCc1n[nH]c2c1[C@@H](O)[C@H](n1nnc3ccccc31)[C@@H](c1ccccc1Cl)N2 (racemic)
[2]
  Emax: 191%
[4]; read-out: EC50
  EC50: 480 nM

## Cc1n[nH]c2c1[C@@H](O)[C@H](n1nnc3ccccc31)[C@@H](C)N2 (racemic)
[2]
  Emax: inactive
[4]; fibroblast
  EC50: Not Active

## O[C@@H]1c2ccncc2N[C@H](c2ccccc2Cl)[C@H]1n1nnc2ccccc21 (racemic)
[1]; read-out: IC50
  IC50: 1800 nM
[2]
  Emax: 151%
[3]
  Emax: 99%
[4]; read-out: EC50
  EC50: 570 nM

## Cc1n[nH]c2c1[C@@H](O)[C@H](n1nnc3ccccc31)[C@@H](c1ccccc1F)N2 (racemic)
[1]; read-out: IC50
  IC50: 1800 nM
[2]
  Emax: 137%
[3]
  Emax: 103%
[4]; read-out: EC50
  EC50: 970 nM

## Cc1n[nH]c2c1[C@@H](O)[C@H](n1nnc3ccccc31)[C@@H](c1ccccc1)N2 (racemic) [listing 2 of 2 here]
[2]
  Emax: 173%

## Cc1n[nH]c2c1[C@@H](O)[C@H](n1nnc3ccccc31)[C@@H](c1ccccc1Br)N2 (racemic) [listing 2 of 2 here]
[2]
  Emax: 164%

## Cc1n[nH]c2c1[C@@H](O)[C@H](n1nnc3ccccc31)[C@@H](c1ccccc1Cl)N2 (racemic) [listing 2 of 2 here]
[2]
  Emax: 160%
